The text below walks through data of patent publication US7585859B2, “PDE4B inhibitors and uses therefor” (Plexxikon, Inc., priority 2004, dated 2009).

T1 sequence (Q07343 with tags, fused parts or gaps): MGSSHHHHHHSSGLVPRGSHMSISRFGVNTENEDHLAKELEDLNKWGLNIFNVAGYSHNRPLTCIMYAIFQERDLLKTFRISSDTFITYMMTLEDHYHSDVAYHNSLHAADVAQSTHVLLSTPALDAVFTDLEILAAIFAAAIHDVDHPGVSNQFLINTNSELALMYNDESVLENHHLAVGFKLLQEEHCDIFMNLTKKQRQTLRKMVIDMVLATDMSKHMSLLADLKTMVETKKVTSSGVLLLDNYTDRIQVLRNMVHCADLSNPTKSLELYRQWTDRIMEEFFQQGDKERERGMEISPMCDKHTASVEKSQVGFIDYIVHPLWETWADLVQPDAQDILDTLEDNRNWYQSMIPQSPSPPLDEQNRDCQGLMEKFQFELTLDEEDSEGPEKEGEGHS

One experiment has as its target T1, PDE4B: The catalytic domain of human PDE4B from S152-S528 (Homo sapiens, UniProt Q07343).
T1 construct: His6 (N); thrombin cleavage site (N); made in house; host or cells: E. coli
The experiment is described as follows: PDE4 IC50 determination by Scintillation Proximity Assay, PDE4B. It counts as biochemical. The settings on record: Table 1B, Formula I compounds; read-out: IC50 PDE4B. Here is the method: (§1) IC50s were determined by Scintillation Proximity Assay (SPA). The principle of the assay is based on the fact that cAMP, the PDE4 substrate, binds weakly to Yittrium Silicate SPA beads, whereas AMP, the product of PDE4 hydrolysis binds strongly. Thus, the extent of PDE4 hydrolysis of a sample of [^3H]cAMP can be measured because only the
(§2) [^3H]AMP produced by PDE4 hydrolysis will bind to the SPA beads and produce a scintillation signal.
(§3) PDE4 enzymes used for IC50 assays were:
(§4) Enzyme was stored in 50% glycerol at −20°.
(§5) In addition to the compound dilutions, each assay plate contained control wells with 1 μl of DMSO (to define 0% enzyme inhibition) or 1 μl of 200 μM roflumilast (to define 100% enzyme inhibition). […] Next, 10 μl of PDE4 enzyme in assay buffer was added and the plates were shaken for 30 s. at 1000 rpm to start the cAMP hydrolysis reaction. The concentrations of enzyme used were: PDE4B, 80 ng/ml; PDE4D, 4 ng/ml; PDE4B2, 2.5 μl of 50% glycerol stock/ml; PDE4D5 0.083 μl of 50% glycerol stock/ml. Assay plates were covered and incubated for 30 min. at 30°. […] The assay plates were covered with clear plastic film, centrifuged for 1 min. at 1000 RPM to settle the SPA beads, and counted using a Wallac TriLux scintillation counter. IC50's were calculated from the raw assay data by non-linear regression curve fitting using the Assay Explorer software package from MDL.
For `NC(=O)c1sc2[nH]c(=O)c(C(=O)O)cc2c1N` [Compound 1-10, 3-Amino-2-carbamoyl-6-oxo-6,7-diliydro-thieno[2,3-b]pyridine-5-carboxylic acid], the IC50 is over 10 µM. `Cc1ccc(C2CC(=O)Nc3sc(C(N)=O)c(N)c32)cc1` (centres unmarked) [Compound 1-11, 3-Amino-6-oxo-4-p-tolyl-4,5,6,7-tetrahydro-thieno[2,3-b]pyridine-2-carboxylic acid amide]: the IC50 was over 10 µM. As to `CC(=O)C1=C(C)Nc2sc(C(N)=O)c(N)c2C1c1ccc(Cl)cc1` (centres unmarked) [Compound 1-5, 5-Acetyl-3-amino-4-(4-chloro-phenyl)-6-methyl-4,7-dihydro-thieno[2,3-b]pyridine-2-carboxylic acid amide], the IC50 is under 10 µM. For `NC(=O)c1sc(Nc2ccccc2)c(-c2nc3ccccc3[nH]2)c1N` [Compound 1-14, 3-Amino-4-(1H-benzoimidazol-2-yl)-5-phenylamino-thiophene-2-carboxylic acid amide], the IC50 is under 10 µM.

As for `N#Cc1c(Nc2ccccc2Cl)sc(C(=O)c2ccc(Oc3ccccc3)cc2)c1N` [Compound 1-194, 4-Amino-2-(2-chloro-phenylamino)-5-(4-phenoxy-benzoyl)-thiophene-3-carbonitrile], the IC50 was under 10 µM. The same measure, in the same setting: then `CC(=O)C1=C(C)Nc2sc(C(N)=O)c(N)c2C1c1ccco1` (centres unmarked) [Compound 1-7, 5-Acetyl-3-amino-4-furan-2-yl-6-methyl-4,7-dihydro-thieno[2,3-b]pyridine-2-carboxylic acid amide], with over 10 µM; and `N#Cc1c(NC2CCCC2)sc(C(=O)c2ccc(-c3ccccc3)cc2)c1N` [Compound 1-188, 4-Amino-5-(biphenyl-4-carbonyl)-2-cyclopentylamino-thiophene-3-carbonitrile], with under 10 µM; and `CC(=O)C1=C(C)Nc2sc(C(=O)c3cccc([N+](=O)[O-])c3)c(N)c2C1c1cccnc1` (centres unmarked) [Compound 1-9, 1-[3-Amino-6-methyl-2-(3-nitro-benzoyl)-4-pyridin-3-yl-4,7-dihydro-thieno[2,3-b]pyridin-5-yl]-ethanone], with under 10 µM. As to `N#Cc1c(NC2CCCC2)sc(C(=O)c2cc(C(=O)N3CCOCC3)no2)c1N` [Compound 1-175, 4-Amino-2-cyclopentylamino-5-[3-(morpholine-4-carbonyl)-isoxazole-5-carbonyl]-thiophene-3-carbonitrile], the IC50 is under 10 µM.

`Cc1cc(=O)[nH]c2sc(C(=O)c3ccc(Br)cc3)c(N)c12` [Compound 1-3, 3-Amino-2-(4-bromo-benzoyl)-4-methyl-7H-thieno[2,3-b]pyridin-6-one]: the IC50 was over 10 µM.

As for `CCc1ccc(C(=O)c2sc3c(c2N)C(c2cccnc2)C(C(C)=O)=C(C)N3)cc1` (centres unmarked) [Compound 1-8, 1-[3-Amino-2-(4-ethyl-benzoyl)-6-methyl-4-pyridin-3-yl-4,7-dihydro-thieno[2,3-b]pyridin-5-yl]-ethanone], the IC50 was under 10 µM. Turning to “3-Amino-2-(4-ethyl- phenylcarbamoyl)-6-oxo- 6,7-dihydro- thieno[2.3-b]pyridine- 5-carboxylic acid [Compound 1-6]”, the IC50 is over 10 µM.

Take `COc1ccc(C(=O)c2sc(Nc3ccc(Oc4ccccc4)cc3)c(C#N)c2N)cc1` [Compound 1-174]: the IC50 is under 10 µM.

On to `CCNc1sc(C(=O)OC)c(N)c1C#N` [Compound 1-13, 3-Amino-4-cyano-5-ethylamino-thiophene-2-carboxylic acid methyl ester], for which the IC50 is under 10 µM.

Staying with this experiment, now noted: Table 3A, Formula III compounds; read-out: IC50 PDE4B.
For the compound `COc1ccc(Br)cc1S(=O)(=O)Nc1cccc2cccnc12` [Compound 3-60, 5-Bromo-2-methoxy-N-quinolin-8-yl-benzenesulfonamide], the IC50 is over 10 µM. On to `Cc1nccc(-c2cccc(S(=O)(=O)Nc3ccc(Br)c4cccnc34)c2)n1` [Compound 3-67, N-(5-Bromo-quinolin-8-yl)-3-(2-methyl-pyrimidin-4-yl)-benzenesulfonamide], for which the IC50 is over 10 µM. Take `COc1ccc(NS(=O)(=O)c2ccc(-c3cnco3)s2)c2ncccc12` [Compound 3-36, 5-Oxazol-5-yl-thiophene-2-sulfonic acid (5-methoxy-quinolin-8-yl)-amide]: the IC50 was under 10 µM. `CSc1nc(Nc2cccc(S(=O)(=O)Nc3cccc4cccnc34)c2)c2ccccc2n1` [Compound 3-63, 3-(2-Methylsulfanyl-quinazolin-4-ylamino)-N-quinolin-8-yl-benzenesulfonamide]: the IC50 was under 10 µM. Same read-out and setting: with `O=S(=O)(Nc1cccc2cccnc12)c1cccc(Nc2ccncn2)c1` [Compound 3-61, 3-(Pyrimidin-4-ylamino)-N-quinolin-8-yl-benzenesulfonamide] the figure was under 10 µM; with `O=C(c1ccncc1)c1ccc(S(=O)(=O)Nc2cccc3cccnc23)cc1` [Compound 3-64, 4-(Pyridine-4-carbonyl)-N-quinolin-8-yl-benzenesulfonamide], under 10 µM; with `O=S(=O)(Nc1cccc2cccnc12)c1ccc(N2CCOCC2)cc1` [Compound 3-65, 4-Morpholin-4-yl-N-quinolin-8-yl-benzenesulfonamide], under 10 µM.

In the case of `O=S(=O)(Nc1cccc2cccnc12)c1ccc(Oc2ccccc2)nc1` [Compound 3-69, 6-Phenoxy-pyridine-3-sulfonic acid quinolin-8-ylamide], the IC50 was over 10 µM.

For `CSc1ncc(-c2ccc(S(=O)(=O)N(C)c3cccc4cccnc34)s2)cn1` [Compound 3-19, 5-(2-Methylsulfanyl-pyrimidin-5-yl)-thiophene-2-sulfonic acid methyl-quinolin-8-yl-amide], the IC50 is under 10 µM. As to `O=S(=O)(Nc1cc(Br)cc2cccnc12)c1ccccc1` [Compound 3-59, N-(6-Bromo-quinolin-8-yl)-benzenesulfonamide], the IC50 is over 10 µM. `COc1ccc(NS(=O)(=O)c2ccc(-c3ccnc(SC)n3)s2)c2ncccc12` [Compound 3-18, 5-(2-Methylsulfanyl-pyrimidin-4-yl)-thiophene-2-sulfonic acid (5-methoxy-quinolin-8-yl)-amide]: the IC50 was under 10 µM. `CSc1nccc(-c2ccc(S(=O)(=O)Nc3ccc(Br)c4cccnc34)s2)n1` [Compound 3-17, 5-(2-Methylsulfanyl-pyrimidin-4-yl)-thiophene-2-sulfonic acid (5-bromo-quinolin-8-yl)-amide]: the IC50 is under 10 µM. For `CSc1nc(Nc2ccc(S(=O)(=O)Nc3cccc4cccnc34)cc2)c2ccccc2n1` [Compound 3-62, 4-(2-Methylsulfanyl-quinazolin-4-ylamino)-N-quinolin-8-yl-benzenesulfonamide], the IC50 is under 10 µM.

Turning to `O=S(=O)(Nc1ccc(Br)c2cccnc12)c1ccc(-c2cnco2)s1` [Compound 3-35, 5-Oxazol-5-yl-thiophene-2-sulfonic acid (5-bromo-quinolin-8-yl)-amide], the IC50 was under 10 µM.

For `COc1cc(NS(=O)(=O)c2c(Cl)cccc2Cl)c2ncccc2c1` [Compound 3-50, 2,6-Dichloro-N-(6-methoxy-quinolin-8-yl)-benzenesulfonamide], the IC50 is over 10 µM. On to `COc1ccc(NS(=O)(=O)c2cccc(-c3ccnc(C)n3)c2)c2ncccc12` [Compound 3-68, N-(5-Methoxy-quinolin-8-yl)-3-(2-methyl-pyrimidin-4-yl)-benzenesulfonamide], for which the IC50 was under 10 µM.

The same experiment, now with this note: second part of Table 2B (2-23 to 2-103), column 3; column is PDE4B in first part; read-out: IC 50 vs. indicated assay h TNFα.
Turning to `Nc1nc(Nc2c(F)cccc2F)sc1C(=O)c1ccccc1` [Compound 2-44, [4-Amino-2-(2,6-difluoro-phenylamino)-thiazol-5-yl]-phenyl-methanone], the IC50 is under 10 µM.

In a further experiment the target is T2, PDE4D (Homo sapiens, UniProt Q08499).
T2 construct: PDE4D: The catalytic domain of human PDE4B from S3 16-V692; His6 (N); thrombin cleavage site (N); made in house; host or cells: E. coli
T2 sequence (Q08499 380-756): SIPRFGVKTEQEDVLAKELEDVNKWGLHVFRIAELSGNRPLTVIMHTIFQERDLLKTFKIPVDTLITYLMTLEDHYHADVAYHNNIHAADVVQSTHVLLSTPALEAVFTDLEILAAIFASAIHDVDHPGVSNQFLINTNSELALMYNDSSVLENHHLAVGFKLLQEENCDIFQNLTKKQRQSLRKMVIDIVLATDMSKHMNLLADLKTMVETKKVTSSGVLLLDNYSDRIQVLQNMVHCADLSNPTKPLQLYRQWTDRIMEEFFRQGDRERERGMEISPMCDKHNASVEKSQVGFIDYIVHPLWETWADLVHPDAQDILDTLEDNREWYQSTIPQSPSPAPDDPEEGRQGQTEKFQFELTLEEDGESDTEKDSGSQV
The experiment is described as follows: PDE4 IC50 determination by Scintillation Proximity Assay, PDE4D. The settings on record: first part of Table 2B (2-1 to 2-22); read-out: IC 50 vs. indicated assay PDE4D. It counts as biochemical. Here is the method: as §1, §2, §3, §4, §5
Turning to `Nc1nc(Nc2ccc(Oc3ccccc3)cc2)sc1C(=O)c1cc(-c2ccccc2)no1` [Compound 2-8, [4-Amino-2-(4-phenoxy-phenylamino)-thiazol-5-yl]-(3-phenyl-isoxazol-5-yl)-methanone], the IC50 is over 10 µM.

Still in this experiment, the particulars now being: second part of Table 2B (2-23 to 2-103), column 5; column is PDE4D in first part; read-out: IC 50 vs. indicated assay h TNFα.
Turning to `Nc1nc(Nc2ccc(Oc3ccccc3)cc2)sc1C(=O)c1ccc(OC(F)F)cc1` [Compound 2-61, [4-Amino-2-(4-phenoxy-phenylamino)-thiazol-5-yl]-(4-difluoromethoxy-phenyl)-methanone], the IC50 was over 10 µM. For the compound `Nc1nc(Nc2ccc(Oc3ccccc3)cc2)sc1C(=O)c1ccc(Oc2ccccc2)cc1` [Compound 2-47, [4-Amino-2-(4-phenoxy-phenylamino)-thiazol-5-yl]-(4-phenoxy-phenyl)-methanone], the IC50 was over 10 µM. Turning to `COc1cccc(C(=O)c2sc(Nc3cccc(C#N)c3)nc2N)c1` [Compound 2-64, 3-[4-Amino-5-(3-methoxy-benzoyl)-thiazol-2-ylamino]-benzonitrile], the IC50 is over 10 µM.
